Experiment [1] deals with T1, CB2 receptor (Homo sapiens, UniProt P34972).
T1 construct: expressed in transfected cells; host or cells: SK-N-MC cells, stably transfected with pcDNA3 CB-2 (human)
Briefly: Functional cell-based CRE β-gal assay, CB2 (adenylate cyclase activity). An excerpt: The CB1 and CB2 receptors are G-protein coupled receptors (GPCR), which influence cell function via the Gi-protein. These receptors modulate the activity of intracellular adenylate cyclase, which in turn produces the intracellular signal messenger cyclic-AMP (cAMP).
At baseline, or during non-ligand bound conditions, these receptors are constitutively active and tonically suppress adenylate cyclase activity. The binding of an agonist causes further receptor activation and produces additional suppression of adenylate cyclase activity. The binding of an inverse agonist inhibits the constitutive activity of the receptors and results in an increase in adenylate cyclase activity.
By monitoring intracellular adenylate cyclase activity, the ability of compounds to act as agonists or inverse agonists can be determined.
Test compounds were evaluated in SK-N-MC cells which, using standard transfection procedures, were stably transfected with human cDNA for pcDNA3-CRE β-gal and pcDNA3 CB1 receptor (human) or pcDNA3 CB2 receptor (human). By expressing CRE β-gal, the cells produced β-galactosidase in response to CRE promoter activation by cAMP. Cells expressing CRE β-gal and either the human CB1 or CB2 receptor will produce less β-galactosidase when treated with a CB1/CB2 agonist and will produce more β-galactosidase when treated with a CB1/CB2 inverse agonist.
The cells were grown in 96-well plates under standard cell culture conditions at 37° C. in a 5% CO2 atmosphere. After 3 days, the media was removed and a test compound in media (wherein the media was supplemented with 2 mM L-glutamine, […] sodium pyruvate, 0.1% low fatty acid FBS (fetal bovine serum) and antibiotics) was added to the cell. The plates were incubated for 30 minutes at 37° C. and the plate cells were then treated with forskolin over a 4-6 hour period, then washed and lysed. The β-galactosidase activity was quantitated using commercially available kit reagents (Promega Corp. Madison, Wis.) and a Vmax Plate Reader (Molecular Devices, Inc).
For cells expressing CRE β-gal and the CB2 receptor, CB2 agonists reduced β-galactosidase activity in a dose-dependent manner and CB2 inverse agonists increase β-galactosidase activity in a dose-dependent manner.
The change in β-galactosidase activity was determined by setting a vehicle treated cell's activity value at 100% and expressing the β-galactosidase activity measured in a corresponding compound treated cell as a percent of the vehicle treated cell activity.
The EC50 value for functional activity for compounds tested was calculated by linear regression and was obtained from studies in which varying compound concentrations were used.
The value of 29% for Compound 5 represents change in functional activity and was obtained from a study in which one compound concentration was used.

For experiment [2], the system named is DSS induced colitis. The experiment can be described thus: Dextran sulfate sodium (DSS) induced colitis model. It counts as in vivo, Female Balb/c mice. The note with it: for % Inh (Macro), % inhibition of colitis: macroscopic score. The text has this:
In the distal colon, the DSS colitis model is characterized by a discontinuous pattern of mucosal epithelial damage, infiltration of inflammatory cells (including macrophages, neutrophils and lymphocytes) into the mucosa and submucosa, […] wet weight of the colon, shrinkage of the colon length and diarrhea (see, Blumberg R. S., Saubermann L. J. and Strober W., Animal models of mucosal inflammation and their relation to human inflammatory bowel disease, Current Opinion in Immunology, 1999, Vol. 11: 648-656; Egger B., Bajaj-Elliott M., MacDonald T. T., Inglin R., Eysselein, V. E. and Buchler M. W., Characterization of acute murine dextran sodium sulphate colitis: Cytokine profile and dose dependency, Digestion, 2000, Vol. 62: 240-248; Stevceva L., Pavli P., Husband A. J. and Doe, W. F., The inflammatory infiltrate in the acute stage of the dextran sulphate sodium induced colitis: B cell response differs depending on the percentage of DSS used to induce it, BMC Clinical Pathology, 2001, Vol 1: 3-13; and Diaz-Granados, Howe K., Lu J. and McKay D. M., Dextran sulfate sodium-induced colonic histopathology, but not altered epithelial ion transport, is reduced by inhibition of phosphodiesterase activity, Amer. J. Pathology, 2000, Vol. 156: 2169-2177).
Female Balb/c mice (Taconic Farms, Germantown, N.Y.) (10-13 weeks old) were provided with a solution of 5% DSS (45 kD molecular weight, ICN chemicals, Newport, Calif.) in tap water ad libitum over a 7-day period. The DSS solution was replenished daily and the amount consumed was measured.
The mice (10 per treatment group) were orally administered a test compound on the day of colitis induction and then daily thereafter.
Six days after the initial DSS administration, the last test compound dose was administered.
Seven days after the initial DSS administration, the animals were sacrificed. The colons were resected, examined for signs of inflammation, weighed after removing fecal contents and the length from the aboral end of the cecum to the anus was measured. The fecal contents were examined for signs of diarrhea. The distal colon between the 1st and the 4th centimeter was removed and placed in 10% neutral buffered formalin for histological analysis.
The macroscopic observations of colon inflammation (a measure of colon damage), colon length and stool consistency and appearance were assigned a score and used to evaluate colitis severity.
The three observation scores for each colon were combined, whereby a combined score of 0 represents a normal colon and a combined score of 11 represents a maximally affected colon. Statistical analyses were performed in Graphpad Prism 4.0 using ANOVA.
Histological analyses of tissues consisted of staining paraffin-embedded tissue sections with hematoxylin-eosin dye. The tissues were examined using light microscopy by an investigator who was blinded to the sample groups.
The microscopic observations of epithelial damage, cellular infiltration and damage or alteration of smooth muscle architecture (a measure of muscle damage) were assigned a score and used to evaluate colitis severity.
The scores for each colon were combined, whereby a combined score of 0 represents a normal colon and a combined score of 9 represents a maximally affected colon. […]
The Macroscopic Score and Microscopic Score results for each treatment group were each combined into a mean score and expressed as % inhibition of colitis (% Inh). […] ND represents Not Determined.

Molecules are shown by their SMILES.

T1 sequence (P34972 whole entry): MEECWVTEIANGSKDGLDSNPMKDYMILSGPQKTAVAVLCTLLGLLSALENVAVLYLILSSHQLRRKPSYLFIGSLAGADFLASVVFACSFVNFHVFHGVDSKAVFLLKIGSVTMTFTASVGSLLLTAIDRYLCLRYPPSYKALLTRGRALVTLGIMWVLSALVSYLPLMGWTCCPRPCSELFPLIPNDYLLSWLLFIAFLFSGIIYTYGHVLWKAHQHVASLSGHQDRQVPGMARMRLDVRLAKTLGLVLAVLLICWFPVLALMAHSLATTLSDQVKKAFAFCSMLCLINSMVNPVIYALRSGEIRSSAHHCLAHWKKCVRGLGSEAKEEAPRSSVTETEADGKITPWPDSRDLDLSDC

By EC50 is commonly meant the concentration needed to bring the measured effect to its halfway point. As to `O=C(NCC12CC3CC(CC(C3)C1)C2)c1nn(C2CCCCC2)c2c1CCCCCC2` [Cpd 2, 1-cyclohexyl-4,5,6,7,8,9-hexahydro-1H-cyclooctapyrazole-3-carboxylic acid (adamantan-1-ylmethyl)-amide], the EC50 in experiment [1] was 6.6 nM. Also, the “% Inh (Macro), % inhibition of colitis” value was −4.3 ± 12.9% in experiment [2] (1 mg/kg oral daily), 21.9 ± 15.2% in experiment [2] (5 mg/kg oral daily), 50.5 ± 9.0% in experiment [2] (10 mg/kg oral daily) and 31.6 ± 8.5% in experiment [2] (20 mg/kg oral daily). For the same compound, the “% Inh (Micro), % inhibition of colitis” value in experiment [2] (5 mg/kg oral daily, microscopic score) was 75.7 ± 8.9%.

The record behind these values is patent US7825151B2, “Hexahydro-cyclooctyl pyrazole cannabinoid modulators” (priority 2005, dated 2010).
